Experimental data taken from patent publication US9556150B2, “Inhibitors of bruton's tyrosine kinase” (Hoffmann-La Roche Inc., priority 2013, dated 2017).

Target: Bruton's Tyrosine Kinase (BTK), inactivated state (Homo sapiens (Human), UniProt Q06187)
Assay: Bruton's Tyrosine Kinase (BTK) Inhibition TR-FRET (Time Resolved FRET) competition assay
Format: binding
Conditions: TR-FRET competition with Kinase Tracer 178, BTK-Eu complex, 18-24 h at 14° C.
Method: Bruton's Tyrosine Kinase (BTK) Inhibition TR-FRET (Time Resolved FRET) Assay
This BTK competition assay measures compound potency (IC50) for the inactivated state of Bruton's Tyrosine Kinase using FRET (Förster/Fluorescence Resonance Energy Transfer) technology. The BTK-Eu complex was incubated on ice one hour prior to use at a starting concentration of 50 nM BTK-Bioease™: 10 nM Eu-streptavidin (Perkin-Elmer Catalog#AD0062). The assay buffer consisted of 20 mM HEPES (pH 7.15), 0.1 mM DTT, 10 mM MgCl2, 0.5 mg/ml BSA with 3% Kinase Stabilizer (Fremont Biosolutions, Catalog #STB-K02). After 1 h, the reaction mixture from above was diluted 10 fold in assay buffer to make 5 nM BTK: 1 nM Eu-Streptavidin complex (donor fluorophore). 18 μl of a mixture of 0.11 nM BTK-Eu and 0.11 nM Kinase Tracer 178 (Invitrogen, Catalog #PV5593,) with BTK-Eu alone as no negative control, was then dispensed into 384-well flat bottom plates (Greiner, 784076). Compounds to be tested in assay were prepared as 10× concentrations and serial dilution in half-log increments was performed in DMSO so as to generate 10 point curves. To initiate the FRET reaction, compounds prepared as 10× stock in DMSO was added to the plates and the plates were incubated 18-24 h at 14° C.
After the incubation the plates were read on a BMG Pherastar Fluorescent plate reader (or equivalent) and used to measure the emission energy from the europium donor fluorophore (620 nm emission) and the FRET (665 nm emission). The negative control well values were averaged to obtain the mean minimum. The positive “no inhibitor” control wells were averaged to obtain the mean maximum. Percent of maximal FRET was calculated using following equation: % max FRET=100×[(FSR cmpd−FSR mean min)/(FSR mean max−FSR mean min)]
where FSR=FRET Signal ratio. % Max FRET curves were plotted in Activity Base (Excel) and the IC50(%), hill slope, z′ and % CV were determined. The mean IC50 and standard deviation will be derived from duplicate curves (singlet inhibition curves from two independent dilutions) using Microsoft Excel.
Representative compound data for this assay are listed below in Table II.

Bruton's Tyrosine Kinase (BTK), inactivated state, sequence (Q06187 whole entry): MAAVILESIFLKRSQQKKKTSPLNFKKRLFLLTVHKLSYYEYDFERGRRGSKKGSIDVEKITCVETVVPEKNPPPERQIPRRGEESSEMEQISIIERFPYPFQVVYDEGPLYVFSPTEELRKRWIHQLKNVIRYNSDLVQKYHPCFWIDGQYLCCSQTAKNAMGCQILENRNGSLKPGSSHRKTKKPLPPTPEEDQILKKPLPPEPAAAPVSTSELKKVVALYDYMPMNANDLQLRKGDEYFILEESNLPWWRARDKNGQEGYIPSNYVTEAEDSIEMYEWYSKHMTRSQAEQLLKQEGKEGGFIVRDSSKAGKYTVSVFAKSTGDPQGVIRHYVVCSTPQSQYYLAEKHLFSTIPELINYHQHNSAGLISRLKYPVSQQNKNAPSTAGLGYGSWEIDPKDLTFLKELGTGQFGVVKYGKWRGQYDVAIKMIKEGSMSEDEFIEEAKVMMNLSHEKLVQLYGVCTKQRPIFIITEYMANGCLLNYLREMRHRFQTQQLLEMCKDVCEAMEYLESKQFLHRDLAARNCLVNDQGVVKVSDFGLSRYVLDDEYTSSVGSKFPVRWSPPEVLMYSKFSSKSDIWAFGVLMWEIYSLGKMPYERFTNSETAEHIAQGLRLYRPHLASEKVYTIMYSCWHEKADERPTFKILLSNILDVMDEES

Row | SMILES | IC50
1 | N#Cc1cccc(Oc2ccc(-n3ncc(C(=O)c4cc5cc(C(=O)N6CCOCC6)ccc5[nH]4)c3N)c(Cl)c2)c1 [Example I-30, 3-(4-{5-Amino-4-[5-(morpholine-4-carbonyl)-1H-indole-2-carbonyl]-pyrazol-1-yl}-3-chloro-phenoxy)-benzonitrile] | 6.1 nM
2 | Nc1c(C(=O)c2cc3cc(C(=O)N4CCOCC4)ccc3[nH]2)cnn1-c1ccc(Oc2ccccc2F)cc1Cl [Example I-15, {5-Amino-1-[2-chloro-4-(2-fluoro-phenoxy)-phenyl]-1H-pyrazol-4-yl}-[5-(morpholine-4-carbonyl)-1H-indol-2-yl]-methanone] | 0.82 nM
3 | Cc1cc(Oc2ccccc2)ncc1-n1ncc(C(=O)c2cc3cc(C(=O)N4CCOCC4)ccc3[nH]2)c1N [Example I-3, [5-Amino-1-(4-methyl-6-phenoxy-pyridin-3-yl)-1H-pyrazol-4-yl]-[5-(morpholine-4-carbonyl)-1H-indol-2-yl]-methanone] | 25 nM
4 | Nc1c(C(=O)c2cc3cc(C(=O)N4CCOCC4)ccc3[nH]2)cnn1-c1ccc(Oc2cccc(F)c2F)nc1 [Example I-10, {5-Amino-1-[6-(2,3-difluoro-phenoxy)-pyridin-3-yl]-1H-pyrazol-4-yl}-[5-(morpholine-4-carbonyl)-1H-indol-2-yl]-methanone] | 180 nM
5 | Cc1cc(Oc2cccc(Br)c2)ccc1-n1ncc(C(=O)c2cc3cc(C(=O)N4CCOCC4)ccc3[nH]2)c1N [Example I-17, (2-{5-Amino-1-[4-(3-bromo-phenoxy)-2-methyl-phenyl]-1H-pyrazole-4-carbonyl}-1H-indol-5-yl)-morpholin-4-yl-methanone] | 3.5 nM
6 | CN1CCN(C(=O)c2ccc3[nH]c(C(=O)c4cnn(-c5ccc(Oc6ccccc6C(=O)N(C)C)cc5Cl)c4N)cc3c2)CC1 [Example I-46, 2-(4-{5-Amino-4-[5-(4-methyl-piperazine-1-carbonyl)-1H-indole-2-carbonyl]-pyrazol-1-yl}-3-chloro-phenoxy)-N,N-dimethyl-benzamide] | 4.2 nM
7 | Cc1cc(Oc2cccc(C#N)c2)ccc1-n1ncc(C(=O)c2nc3cc(C(=O)O)ccc3[nH]2)c1N [Example I-42, 2-{5-Amino-1-[4-(3-cyano-phenoxy)-2-methyl-phenyl]-1H-pyrazole-4-carbonyl}-1H-benzoimidazole-5-carboxylic acid] | 130 nM
8 | Cc1cc(Oc2ccccc2C#N)ccc1-n1ncc(C(=O)c2cc3cc(C(=O)N4CCOCC4)ccc3[nH]2)c1N [Example I-43, 2-(4-{5-Amino-4-[5-(morpholine-4-carbonyl)-1H-indole-2-carbonyl]-pyrazol-1-yl}-3-methyl-phenoxy)-benzonitrile] | 1.3 nM
9 | CN(C)C(=O)c1ccccc1Oc1ccc(-n2ncc(C(=O)c3cc4cc(C(=O)N5CCC(N(C)C)C5)ccc4[nH]3)c2N)c(Cl)c1 (centres unmarked) [Example I-50, 2-(4-{5-Amino-4-[5-(3-dimethylamino-pyrrolidine-1-carbonyl)-1H-indole-2-carbonyl]-pyrazol-1yl}-3-chloro-phenoxy)-N,N-dimethyl-benzamide] | 2.5 nM
10 | COc1ccc(-n2ncc(C(=O)c3cc4cc(C(=O)N5CCOCC5)ccc4[nH]3)c2N)c(C)c1 [Example I-20, [5-Amino-1-(4-methoxy-2-methyl-phenyl)-1H-pyrazol-4-yl]-[5-(morpholine-4-carbonyl)-1H-indol-2-yl]-methanone] | 150 nM
11 | Nc1c(C(=O)c2cc3cc(C(=O)N4CCOCC4)ccc3[nH]2)cnn1-c1ccc(Oc2ccccc2)c(F)c1 [Example I-4, [5-Amino-1-(3-fluoro-4-phenoxy-phenyl)-1H-pyrazol-4-yl]-[5-(morpholine-4-carbonyl)-1H-indol-2-yl]-methanone] | 12 nM
12 | CN(C)CCNC(=O)c1ccc2[nH]c(C(=O)c3cnn(-c4ccc(Oc5ccccc5C(=O)N(C)C)cc4Cl)c3N)cc2c1 [Example I-49, 2-{5-Amino-1-[2-chloro-4-(2-dimethylcarbamoyl-phenoxy)-phenyl]-1H-pyrazole-4-carbonyl}-1H-indole-5-carboxylic acid (2-dimethylamino-ethyl)-amide] | 1.4 nM
13 | Cc1cc(Oc2cccc(C#N)c2)ccc1-n1ncc(C(=O)c2nc3cc(C(=O)N4CCOCC4)ccc3[nH]2)c1N [Example I-39, 3-(4-{5-Amino-4-[5-(morpholine-4-carbonyl)-1H-benzoimidazole-2-carbonyl]-pyrazol-1-yl}-3-methyl-phenoxy)-benzonitrile] | 24 nM

The next lines start with the values.

Row | IC50 | SMILES
14 | 2.3 nM | Cc1cc(Oc2cccc(F)c2F)ccc1-n1ncc(C(=O)c2cc3cc(C(=O)N4CCOCC4)ccc3[nH]2)c1N [Example I-5]
15 | 29 nM | COC(=O)c1ccc2[nH]c(C(=O)c3cnn(-c4ccc(Oc5cccc(C#N)c5)cc4C)c3N)cc2c1 [Example I-31, 2-{5-Amino-1-[4-(3-cyano-phenoxy)-2-methyl-phenyl]-1H-pyrazole-4-carbonyl}-H-indole-5-carboxylic acid methyl ester]
16 | 6.9 nM | COc1cc(Oc2cccc(F)c2F)ccc1-n1ncc(C(=O)c2cc3cc(C(=O)N4CCOCC4)ccc3[nH]2)c1N [Example I-28, {5-Amino-1-[4-(2,3-difluoro-phenoxy)-2-methoxy-phenyl]-1H-pyrazol-4-yl}-[5-(morpholine-4-carbonyl)-1H-indol-2-yl]-methanone]
17 | 14.4 nM | Nc1c(C(=O)c2cc3cc(C(=O)N4CCOCC4)ccc3[nH]2)cnn1-c1ccc(Oc2ccccc2)cc1F [Example I-8, [5-Amino-1-(2-fluoro-4-phenoxy-phenyl)-1H-pyrazol-4-yl]-[5-(morpholine-4-carbonyl)-1H-indol-2-yl]-methanone]
18 | 3.3 nM | CN(C)C(=O)c1ccccc1Oc1ccc(-n2ncc(C(=O)c3cc4cc(C(=O)N5CCOCC5)ccc4[nH]3)c2N)c(Cl)c1 [Example I-57, 2-(4-{5-Amino-4-[5-(morpholine-4-carbonyl)-1H-indole-2-carbonyl]-pyrazol-1-yl}-3-chloro-phenoxy)-N,N-dimethyl-benzamide]
19 | 3.6 nM | Cc1cc(Oc2cccc(Cl)c2)ccc1-n1ncc(C(=O)c2cc3cc(C(=O)N4CCOCC4)ccc3[nH]2)c1N [Example I-16, (2-{5-Amino-1-[4-(3-chloro-phenoxy)-2-methyl-phenyl]-1H-pyrazole-4-carbonyl}-1H-indol-5-yl)-morpholin-4-yl-methanone]
20 | 13 nM | Nc1c(C(=O)c2cc3cc(C(=O)N4CCOCC4)ccc3[nH]2)cnn1-c1ccc(Oc2cccc(F)c2F)cc1 [Example I-12, {5-Amino-1-[4-(2,3-difluoro-phenoxy)-phenyl]-1H-pyrazol-4-yl}-[5-(morpholine-4-carbonyl)-1H-indol-2-yl]-methanone]
21 | 50 nM | NC(=O)c1cccc(Oc2ccc(-n3ncc(C(=O)c4cc5cc(C(=O)N6CCOCC6)ccc5[nH]4)c3N)c(Cl)c2)c1 [Example I-37, 3-(4-{5-Amino-4-[5-(morpholine-4-carbonyl)-1H-indole-2-carbonyl]-pyrazol-1-yl}-3-chloro-phenoxy)-benzamide]
22 | 2.6 nM | Cc1cc(Oc2ccccc2)ccc1-n1ncc(C(=O)c2cc3cc(C(=O)N4CCOCC4)ccc3[nH]2)c1N [Example I-7, {2-[5-Amino-1-(2-methyl-4-phenoxy-phenyl)-1H-pyrazole-4-carbonyl]-1H-indol-5-yl}-morpholin-4-yl-methanone]
23 | 6.8 nM | Nc1c(C(=O)c2cc3cc(C(=O)N4CCOCC4)ccc3[nH]2)cnn1-c1ccc(Oc2ccccc2)cc1 [Example I-1, [5-Amino-1-(4-phenoxy-phenyl)-1H-pyrazol-4-yl]-[5-(morpholine-4-carbonyl)-1H-indol-2-yl]-methanone]
